# Earlier results, collected in publication PMC7884382, “A Phase 1 study of RO6870810, a novel bromodomain and extra-terminal protein inhibitor, in patients with NUT carcinoma, other solid tumours, or diffuse large B-cell lymphoma” (British Journal of Cancer, 2020).
# Key:
# [1] = system: NC; settings: cited from earlier work
# [2] = system: serotonin receptors; set-up: method as in PMID 20871596; settings: cited from earlier work
# [3] = cited from earlier work
# [4] = system: DLBCL; set-up: method as in PMID 27063978; settings: cited from earlier work
compound,measurement,setting,value
Cc1nnn(C)c1-c1cnc2c3ccc(C(C)(C)O)cc3n([C@H](c3ccccc3)C3CCOCC3)c2c1 [BMS-986158],Response in a patient with NC harbouring BRD3-NUT fusion,[1],minor but sustained regression
Cc1sc2c(c1C)C(c1ccc(Cl)cc1)=N[C@@H](CC(=O)OC(C)(C)C)c1nnc(C)n1-2 [JQ1],Interaction with serotonin receptors,[2],interaction with serotonin receptors
Cc1sc2c(c1C)C(c1ccc(Cl)cc1)=N[C@@H](CC(=O)Nc1ccc(O)cc1)c1nnc(C)n1-2 [birabresib],half-life,[3],4 to 5 h
same,CRs,[4]; among 22 patients with DLBCL,2
same,PR,[4]; among 22 patients with DLBCL,1
same,Responders among patients with MYC-expressing DLBCL,[4],one of five
CCNC(=O)C[C@@H]1N=C(c2ccc(Cl)cc2)c2cc(OC)ccc2-n2c(C)nnc21 [molibresib],Responses by NUT fusion among patients with NC,[1],PRs (confirmed and unconfirmed) were mostly observed in tumours with BRD3-NUT fusions
